Experimental data from patent US20260041725A1, “MYCONOSIDE-RICH EXTRACT FROM IN VITRO SYSTEMS OF PLANTS BELONGING TO GENERA HABERLEA AND RAMONDA, METHOD OF PREPARATION, AND USE AS CHEMO-, RADIO- AND UV PROTECTOR” (INNOVA BM Ltd., priority 2022, published 2026).

How the values were obtained:
[1] = DPPH radical scavenging activity by direct EPR spectroscopy, with UV protector Oxybenzone (Example 5); settings: for percentage of trapped DPPH radicals: 0.5% aqueous solution, FIG. 4
Method: The radical scavenging activities (% inhibition) of aqueous solutions (0.5%) of Extract 1, Extract 2 (obtained according to Example 1), Oxybenzone, and 1:1 extract: Oxybenzon combinations (w/w) was evaluated by a DPPH test. A comparative DPPH analysis was carried out and the antioxidant potential of Extract 1, Extract 2, a commercial UV protector (Oxybenzone), as well as combinations of Extract 1 with Oxybenzone and of Extract 2 with Oxybenzone was compared. […] The method of direct EPR spectroscopy was used (Yordanov and Christova, 1997; Karamalakova, 2014). To measure DPPH radical scavenging capacity, 98% ethanolic solution of DPPH (80 mM, stock) was used, room temperature (22° C.), and Extract 1, Extract 2, Oxybenzone and the relevant combinations (at a concentration of 0.5%) were mixed and homogenized. The mixture was incubated in the dark, and examined for DPPH-H/R radicals generated in the system at the 1st, 5th and 10th minute. DPPH solution was used as an internal standard for the EPR signal (FIG. 4).

[2] = DPPH radical scavenging activity by direct EPR spectroscopy, with radioprotector amifostine (Example 6); settings: 0.5% aqueous solution, FIG. 5
Text: It has been proven that free radicals generated after exposure to gamma radiation are highly reactive and can trigger chain reactions leading to significant biological damage and increased oxidative stress. […] They are substances and compounds of synthetic or natural origin that allow the body's cells to withstand higher levels of radiation or can quickly eliminate the harmful genotoxic effects of such radiation and maintain human genome stability. […] (FIG. 5).

[3] = DPPH radical scavenging activity before and after 2.0 Gy gamma irradiation (Example 6); settings: 0.25% aqueous solution, FIG. 6
Method: The effect of combinations of the investigated extracts with the commercial radioprotector amifostine was also studied before and after gamma irradiation (FIG. 6). 2.0 Gy 60Co gamma radiation (y-rays) was performed in a water bath (37° C.) with a Rokus-M irradiator at 24 Gy/min.

[4] = tested on: human lymphocyte cultures; assay: Cytokinesis-block micronucleus test, irradiated and non-irradiated blood (Example 7); type: cell-based; settings: non-irradiated blood cells; FIG. 7A
Text: The anticlastogenic potential of Extract 1 and Extract 2 (obtained according to Example 1), as well as of the clinically proven cytoprotective agent amifostine, was investigated individually and in combinations on human lymphocyte cultures in vitro before and after exposure to ionizing radiation (gamma rays) by micronucleus scoring tests. […] A compound is considered mutagenic when it increases the spontaneous frequency of the micronuclei (MN) in polychromatic erythrocytes or in lymphocytes. […] The cytokinesis-block micronucleus assay of Fenech, M. and A. Morley (1985) was used to analyze MN in binuclear lymphocytes from peripheral blood. The number of MN found in the examined 500 binuclear cells from cell cultures prepared with irradiated and non-irradiated peripheral venous blood taken from 5 healthy volunteers was investigated. The blood of the donors was exposed to 2.0 Gy 60Co gamma radiation (y-rays) in a water bath (37° C.) with a Rokus-M irradiator at 24 Gy/min. Exposure was calculated depending on the geometrical parameters of the irradiator, the distance and power of the source.

[5] = tested on: human lymphocyte cultures; assay: Induced chromosomal aberrations test, before and after gamma irradiation (Example 8); type: cell-based; settings: non-irradiated blood cells; FIG. 8A
Text: The clastogenic activity and anticlastogenic potential of Extract 1 and Extract 2 (obtained according to Example 1), as well as of the clinically proven cytoprotective agent amifostine, were investigated alone and in combination on human lymphocyte cultures in vitro before and after exposure to ionizing radiation (y-rays) through tests for detection of induced chromosomal aberrations.
The study design included a total of 6 groups, including the untreated control. In each group, 5 blood donors were examined, and in each donor 100 metaphase plates obtained from lymphocyte cells from peripheral venous blood were analyzed for chromosomal aberrations, or a total of 500 metaphase plates for each group.
Cell cultures were prepared using the method of Evans H. J. for short-term culturing of peripheral blood lymphocytes and obtaining metaphase plates for chromosome aberration reading. Chromosome microscope slides were observed on an Olympus BX41 microscope at the most convenient magnifications—screening preparations at magnification 63 and detailed analysis of chromosomes for aberrations at magnification 1000. A minimum of 100 metaphases from each sample were analyzed. […] Exposure was calculated depending on the geometrical parameters of the irradiator, the distance and power of the source.

[6] = UVA and UVB light transmission (T %) of dilutions of Extract 2 (Example 4); type: physicochemical; settings: FIG. 3
Method: UVA and UVB light transmission (T %) was studied for different dilutions of Extract 2 (obtained according to Example 1 herein) with myconoside concentrations of 0.11 mg/ml, 0.055 mg/ml, 0.011 mg/ml, 0 0.0055 mg/ml, and 0.00275 mg/ml, as presented in FIG. 3.

## COc1ccc(C(=O)c2ccccc2)c(O)c1 [Oxybenzone]
[1]; 1st minute
  percentage of trapped DPPH radicals: 4.7%
[1]; 5th minute
  percentage of trapped DPPH radicals: 3.2%
[1]; 10th minute
  percentage of trapped DPPH radicals: 2.2%
[1]; 0.5%, Oxybenzone alone vs 1:1 combinations with extracts, p<0.001
  antioxidant activity (in words): very low antioxidant activity

## NCCCNCCSP(=O)(O)O [amifostine]
[2]; 1st minute
  percentage of trapped DPPH radicals: 5.1%
[2]; 5th minute
  percentage of trapped DPPH radicals: 4.5%
[2]; 10th minute
  percentage of trapped DPPH radicals: 3.9%
[3]; after 2.0 Gy gamma irradiation
  percentage of trapped DPPH radicals: 5.9%
[3]; before gamma irradiation
  percentage of trapped DPPH radicals: 2.5%
[4]
  clastogenic activity (number of MN in 500 binuclear cells): lack of clastogenic activity
[5]
  clastogenic activity (frequency of aberrant cells): no clastogenic activity

## O=C(CCc1ccc(O)c(O)c1)O[C@H]1[C@H](O[C@H]2OC[C@](O)(CO)[C@H]2O)[C@@H](O)[C@H](OCCc2ccc(O)c(O)c2)O[C@@H]1CO[C@@H]1OC[C@](O)(CO)[C@H]1O [myconoside, [(2R,3R,4R,5R,6R)-4-[(2R,3R,4R)-3,4-dihydroxy-4-(hydroxymethyl)oxolan-2-yl]oxy-2-[[(2R,3R,4R)-3,4-dihydroxy-4-(hydroxymethyl)oxolan-2-yl]oxymethyl]-6-[2-(3,4-dihydroxyphenyl)ethoxy]-5-hydroxyoxan-3-yl]3-(3,4-dihydroxyphenyl)propanoate]
[6]; maximum concentration of 0.11 mg/ml of myconoside (dilutions of Extract 2 of Example 1)
  protection (UV radiation transmission): 100%
[6]; minimum concentration of 0.011 mg/ml of myconoside (dilutions of Extract 2 of Example 1)
  inhibition of UV radiation transmission: 50%
